Measured values taken from patent US20090275727A1, “Peptide turn mimetics” (MIMETICA PTY LIMITED, priority 1998, published 2009).
Read-outs that look alike come from different tables or passages of the source. Where a SMILES comes first, the peptide text is derived from it.

Assays:
[1] = Variable temperature CD, thermal denaturation of secondary structure; assay type: physicochemical
Procedure: CD experiments were performed on a Jasco Model J-810 spectropolarimeter, which was routinely calibrated with (1S)-(+)-10-camphorsulfonic acid at a concentration of 0.06% (w/v). Experiments were performed at 25° C. using a 0.1 cm cell, a scan speed of 10 nm/min from 260 to 180 nm, with a resolution of 1 nm and a response time of 0.25 s. The spectra were averaged over 5 scans, baseline subtracted from the corresponding blank conditions, and smoothed using the Savitsky-Golay smoothing algorithm (Savitsky, A. and Golay, M. J. E., 1964, Anal. Chem, 36, 1627-1639) to reduce noise. The samples were dissolved in 10 mM phosphate buffer, measured as pH 7.4, and when required the appropriate volume of TFE was added to adjust to 30% TFE. The concentration of the samples of peptides incorporating Helix Mimetic A (galanin 1-16 analogs) were determined using the Beer-Lambert Law by measuring the absorbance of the samples at 280 nm and using a molar extinction co-efficient of ε280=6620 M^−1cm^−1 (ε280 of Galanin 1-30, contains same number of Trp and Tyr as Galanin 1-16). The concentration of the samples of peptides incorporating Helix Mimetic B (Temporin A analogs) samples and the pentapeptide 13-membered ring Helix Mimetic A and B samples were determined by quantitative RP-HPLC against a standard of known concentration. All samples were between 40-200 μM, and CD spectra were recorded at a range of concentrations to check that sample aggregation was not occurring. Raw CD data was recorded in raw ellipticity units and converted to mean ellipticity per mole using the equation [θ]=θ/(10×c×l), where c is the sample concentration (M) and l is the cell path length (cm). Data was not converted to mean peptide molar ellipticity per residue as for compounds containing the covalent ethyl-bridge hydrogen bond replacement it is unclear how many “natural” peptide units to count in these calculations. Variable temperature CD experiments were carried using a CDF-426/L Peltier type CD/Fluorescence simultaneous measurement attachment, and samples were equilibrated for 10 min once the desired temperature was reached.
CD spectroscopy (as outlined in Example K) was conducted on the Galanin(1-16) reference linear peptide 231 and the Galanin(1-16) helix mimetics 232a and 232b in 10 mM phosphate buffer (pH 7.4) and in 10 mM phosphate buffer with 30% TFE added (see FIG. 8). […] The CD spectra of […] in both buffer and buffer with TFE. […] Further CD experiments examined the thermal denaturation secondary structure stability of Gal(1-16) 231 and (S)-Gal(1-16) helix mimetic 232b were investigated by thermal denaturation experiments (FIG. 9). […]

[2] = Rat plasma stability of galanin peptides (LC/MS); assay type: in vitro ADME; details: for remaining at 2 min, 500 ng/mL / remaining at 4 h, 500 ng/mL: male, Sprague Dawley
Procedure: Rat plasma was obtained freshly from male Sprague Dawley rats. The stock solutions for the samples Galanin(1-16) Linear Reference Peptide 231, Galanin(1-16) Analog Incorporating (R)-Helix Pentapeptide Mimetic A 232a and Galanin(1-16) Analog Incorporating (S)-Helix Pentapeptide Mimetic A 232b were prepared in 1:1 v:v acetonitrile/water at a concentration of 1 mg/mL. This stock solution was further diluted using 1:1 v:v acetonitrile/water to give a spiking solution with a nominal concentration of 50 μg/mL. For each compound, an aliquot (1485 μL) of rat plasma (maintained at 37° C.) was spiked with 15 μL of the spiking stock to give a nominal plasma concentration of 500 ng/mL. […] Samples were quenched by snap freezing in dry-ice. The concentration of the parent compound (Gal 231, Gal R 232a, Gal S 232b) was determined by LC/MS on a Micromass Quattro Premier triple-quadrupole instrument. The percentage of the parent compound remaining at each time point was calculated relative to the concentrations observed in the spiking control samples.

Galanin GAL2 = biological target: T1, Galanin GAL2 (Homo sapiens, UniProt O43603); assay: Galanin radioligand binding competitive assay, GAL2 (125I galanin human, recombinant CHO-K1 cells); details: 0.02 nM 125I Galanin (human); for inhibition at 0.1 µM: 100 nM peptide, read-out: GAL2 % inhib at 100 nM; for inhibition at 1 µM: 1 1000 nM peptide (so in the source), read-out: GAL2 % inhib at 1 1000 nM
T1 construct: expressed in transfected cells; host or cells: CHO-K1
T1 sequence (O43603 1-387): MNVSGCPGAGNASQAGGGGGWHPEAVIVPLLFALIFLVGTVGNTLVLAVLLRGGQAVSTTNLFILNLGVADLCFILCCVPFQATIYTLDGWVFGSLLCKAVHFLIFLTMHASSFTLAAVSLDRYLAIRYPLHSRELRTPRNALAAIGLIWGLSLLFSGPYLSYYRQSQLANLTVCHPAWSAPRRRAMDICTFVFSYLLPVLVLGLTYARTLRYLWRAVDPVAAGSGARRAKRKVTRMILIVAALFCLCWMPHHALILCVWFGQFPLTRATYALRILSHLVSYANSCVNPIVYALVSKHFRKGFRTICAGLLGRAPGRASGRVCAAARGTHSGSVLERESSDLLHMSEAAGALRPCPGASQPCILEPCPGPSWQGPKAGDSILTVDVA
Procedure: (§1) Galanin(1-16) Linear Reference Peptide 231, Galanin(1-16) Analog Incorporating (R)-Helix Pentapeptide Mimetic A 232a and Galanin(1-16) Analog Incorporating (S)-Helix Pentapeptide Mimetic A 232b were tested for binding affinity to the Galanin-1 and Galanin-2 receptors using a radioligand binding competitive assay (Heuillet E, Bouaiche Z, Menager J, Dugay P, Munoz N, Dubois H, Amiranoff B, Crespo A, Lavayre J, Blanchard J C, Doble A; Eur J. Pharmacol., 1994, 269, 139-147. Bloomquist B T, Beauchamp M R, Zhelnin L, Brown S E, Biochem Biophys Res Comm., 1998, 243, 474-479.) Human recombinant HEK-293 cells were used as the source of Galanin GAL1, and samples tested against competitive binding with 0.012 nM ^125I Galanin (porcine). DMSO was used as the vehicle, and the incubation buffer consisted of 10 mM HEPES-NaOH, pH 7.4, 1 mM EDTA, 0.5% BSA, 0.01% Bacitracin. Human recombinant CHO-K1 cells were used as the source of Galanin GAL2, and samples tested against competitive binding with 0.02 nM ^125I Galanin (human).

Galanin GAL1 = biological target: T2, Galanin GAL1 (Homo sapiens, UniProt P47211); assay: Galanin radioligand binding competitive assay, GAL1 (125I galanin porcine, recombinant HEK-293 cells); details: 0.012 nM 125I Galanin (porcine), human recombinant HEK-293; for inhibition at 0.01 µM: 10 nM peptide, read-out: GAL1 % inhib at 10 nM; for inhibition at 0.1 µM: 100 nM peptide, read-out: GAL1 % inhib at 100 nM
T2 construct: expressed in transfected cells; host or cells: HEK-293
T2 sequence (P47211 1-349): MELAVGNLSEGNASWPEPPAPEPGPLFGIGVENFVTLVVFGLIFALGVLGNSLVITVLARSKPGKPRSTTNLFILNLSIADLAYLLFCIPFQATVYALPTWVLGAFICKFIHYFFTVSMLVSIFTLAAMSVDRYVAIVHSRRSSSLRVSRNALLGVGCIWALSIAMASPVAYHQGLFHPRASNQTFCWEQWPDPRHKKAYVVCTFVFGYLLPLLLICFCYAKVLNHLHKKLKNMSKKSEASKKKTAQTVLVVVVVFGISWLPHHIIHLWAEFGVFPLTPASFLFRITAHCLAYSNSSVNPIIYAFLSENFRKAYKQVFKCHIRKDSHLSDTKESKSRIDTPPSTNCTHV
Procedure: as §1

[3] = Solubility in water noted when preparing the NMR sample; assay type: physicochemical; details: NMR run in 1:9 d3-TFE:H2O instead
Procedure: To a solution of Ac-GY(tBu)LLG-OMe 229 (58 mg, 0.09 mmol) in dichloromethane (2 mL) was added TFA (2 mL) and the solution stirred at rt for 1 h. The volatiles were removed under reduced pressure, and the residue dissolved in acetonitrile (1 mL) and water (1 mL). This solution was purified by preparative HPLC, to give the purified peptide 230 (12.6 mg) as a white solid. [M+H]^+=578.8; Analytical HPLC (0-40% B over 40 min, mL/min, 214 nm): tR=25.51 min; ^1H NMR, 600 MHz, 1:9 d3-TFE:H2O. Consistent with structure.

[4] = pH 7.4, 30% TFE in phosphate buffer, 5-75° C.

| SMILES | Thermal stability of secondary structure (variable temperature CD) ([1]; pH 7.4) | Time after spiking until concentration is below the limit of quantitation [2] [min] | remaining at 2 min, 500 ng/mL ([2]; rat, plasma) [%] | Percent remaining at end of 240 min incubation compared with 10 (linear Gal(1-16)) ([2]; rat, plasma, 4 h) | inhibition at 0.1 µM (Galanin GAL2) [%] | inhibition at 1 µM (Galanin GAL2) [%] | inhibition at 0.01 µM (Galanin GAL1) [%] | inhibition at 0.1 µM (Galanin GAL1) [%] | Thermal stability of secondary structure (variable temperature CD) [1, 4] | other results |
| --- | --- | --- | --- | --- | --- | --- | --- | --- | --- | --- |
| CC(C)C[C@@H]1NC(=O)[C@H](Cc2ccc(O)cc2)N[C@H](CNC(=O)[C@H](C)NC(=O)[C@H](CO)NC(=O)[C@H](CC(N)=O)NC(=O)[C@H](CC(C)C)NC(=O)[C@@H](NC(=O)[C@H](Cc2c[nH]c3ccccc23)NC(=O)CN)[C@@H](C)O)CCN(CC(=O)N2CCC[C@H]2C(=O)N[C@@H](CC2C=NC=N2)C(=O)N[C@@H](C)C(=O)N[C@H](C(N)=O)C(C)C)C(=O)[C@H](CC(C)C)NC1=O (stereo partly drawn) [Gal S 232b] | excellent structural stability at elevated temperatures | ≤ 30 | 44.8 | significantly higher | 2 | 6 | 2 | 18 | – | remaining at 4 h, 500 ng/mL ([2]; rat, plasma): 31.3% |
| CC[C@H](C)[C@H](NC(=O)[C@H](CC(C)C)NC(=O)C1CCCN1C(=O)[C@H](CC(C)C)NC(=O)[C@@H](N)Cc1ccccc1)C(=O)NCC(=O)N[C@@H](CCCNC(=N)N)C(=O)NC[C@@H]1CCN([C@@H](CC(C)C)C(=O)N[C@@H](CC(C)C)C(N)=O)C(=O)CNC(=O)[C@H](CO)NC(=O)[C@H](CC(C)C)N1 (stereo partly drawn) [Compound 235b] | remarkable thermal stability | – | – | – | – | – | – | – | – | – |
| COC(=O)CNC(=O)[C@H](CC(C)C)NC(=O)[C@H](CC(C)C)NC(=O)[C@H](Cc1ccc(O)cc1)NC(=O)CNC(C)=O [Compound 230, Ac-GYLLG-OMe] (HELM PEPTIDE1{[ac].G.Y.L.L.G.[CO[*:1]]}$$$$V2.0) | – | – | – | – | – | – | – | – | – | Solubility in H2O [3]: not soluble in H2O |
| CC(C)C[C@@H]1NC(=O)[C@H](Cc2ccc(O)cc2)N[C@@H](CNC(=O)[C@H](C)NC(=O)[C@H](CO)NC(=O)[C@H](CC(N)=O)NC(=O)[C@H](CC(C)C)NC(=O)[C@@H](NC(=O)[C@H](Cc2c[nH]c3ccccc23)NC(=O)CN)[C@@H](C)O)CCN(CC(=O)N2CCC[C@H]2C(=O)N[C@@H](CC2C=NC=N2)C(=O)N[C@@H](C)C(=O)N[C@H](C(N)=O)C(C)C)C(=O)[C@H](CC(C)C)NC1=O (stereo partly drawn) [Gal R 232a] | – | ≤ 30 | 50 | significantly higher | 6 | 36 | 8 | 37 | – | % Compound remaining at 4° C. ([2]; rat, plasma, 4 h): 31.3% |
| CC(C)C[C@H](NC(=O)[C@H](CC(C)C)NC(=O)[C@H](Cc1ccc(O)cc1)NC(=O)CNC(=O)[C@H](C)NC(=O)[C@H](CO)NC(=O)[C@H](CC(N)=O)NC(=O)[C@H](CC(C)C)NC(=O)[C@@H](NC(=O)[C@H](Cc1c[nH]c2ccccc12)NC(=O)CN)[C@@H](C)O)C(=O)NCC(=O)N1CCC[C@H]1C(=O)N[C@@H](CC1C=NC=N1)C(=O)N[C@@H](C)C(=O)N[C@H](C(N)=O)C(C)C (stereo partly drawn) [Gal (1-16) 231, GWTLNSAGYLLGPHAV-NH2, reference compound] | – | – | – | – | 92 | 101 | 85 | 96 | decreased peptide secondary structure with increased temperature | remaining at 4 h, 500 ng/mL ([2]; rat plasma, 4° C., 240 min, read-out: % Compound remaining at 4° C.): 6.2%; remaining at 2 min, 500 ng/mL ([2]; rat plasma, 37° C., 2 min, nominal 500 ng/mL, read-out: % Compound remaining at 37° C.): 30.2% |
| CC[C@H](C)[C@H](NC(=O)[C@H](CC(C)C)NC(=O)C1CCCN1C(=O)[C@H](CC(C)C)NC(=O)[C@@H](N)Cc1ccccc1)C(=O)NCC(=O)N[C@@H](CCCNC(=N)N)C(=O)NCC(=O)N[C@@H](CC(C)C)C(=O)N[C@@H](CO)C(=O)NCC(=O)N[C@@H](CC(C)C)C(=O)N[C@@H](CC(C)C)C(N)=O (stereo partly drawn) [Compound 234, FLPLIGRGLSGLL-NH2, reference compound] | – | – | – | – | – | – | – | – | increase in 222 nm absorbance as temperature increases, indicative of the helix unwinding | – |
